Reference: patent US20220184072A1 (priority 2019, published 2022)

Key:
[1] = morphine 30 mg/kg orally twice per day
[2] = test system: TH (tyrosine hydroxylase); assay: CNS phosphoprotein profile, TH; format: in vivo; details: mice nucleus accumbens; Example 1 3 mg/kg at 30 or 60 minutes; haloperidol 2 mg/kg
Procedure: A comprehensive molecular phosphorylation study is also carried out to examine the central nervous system (CNS) profile of the compound of Example 1. The extent of protein phosphorylation for selected key central nervous system proteins is measured in mice nucleus accumbens.
Mice were killed 30 minutes to 2 hours post-injection by focused microwave cranial irradiation, which preserves brain phosphoprotein as it exists at the time of death. Nucleus accumbens was then dissected from each mouse brain, sliced and frozen in liquid nitrogen. Samples were further prepared for phosphoprotein analysis via SDS-PAGE electrophoresis followed by phosphoprotein-specific immunoblotting, as described in Zhu H, et al., Brain Res. 2010 Jun. 25; 1342:11-23. Phosphorylation at each site was quantified, normalized to total levels of the protein (non-phosphorylated), and expressed as percent of the level of phosphorylation in vehicle-treated control mice.

Structure (SMILES)	tolerance and dependence [1]	increase in TH phosphorylation at Ser40 [2]
CN1CC[C@]23c4c5ccc(O)c4O[C@H]2[C@@H](O)C=C[C@H]3[C@H]1C5 [Morphine]	clear signs of tolerance and dependence	–
O=C(CCCN1CCC(O)(c2ccc(Cl)cc2)CC1)c1ccc(F)cc1 [haloperidol]	–	greater than 400%
Cc1nc2n(c(=O)c1CCN1CCC(c3noc4cc(F)ccc34)CC1)CCCC2 [risperidone]	–	greater than 500%
